Laboratory results taken from patent publication US20230183592A1, “[…] ORGANO[…] AS NON-[…]-WEAR AGENTS” (priority 2020, published 2023).
Read-outs that look alike come from different tables or passages of the source.

Experiments:
[1] = molecular target: T1, BuChE from equine serum (eqBuChE) (Equus caballus, UniProt P81908); test: biochemical; type: biochemical
T1 construct: The BuChE freeze-dried from equine serum (eqBuChE, Sigma Aldrich); purchased Sigma Aldrich; host or cells: equine serum (natural source)
T1 sequence (P81908 whole entry): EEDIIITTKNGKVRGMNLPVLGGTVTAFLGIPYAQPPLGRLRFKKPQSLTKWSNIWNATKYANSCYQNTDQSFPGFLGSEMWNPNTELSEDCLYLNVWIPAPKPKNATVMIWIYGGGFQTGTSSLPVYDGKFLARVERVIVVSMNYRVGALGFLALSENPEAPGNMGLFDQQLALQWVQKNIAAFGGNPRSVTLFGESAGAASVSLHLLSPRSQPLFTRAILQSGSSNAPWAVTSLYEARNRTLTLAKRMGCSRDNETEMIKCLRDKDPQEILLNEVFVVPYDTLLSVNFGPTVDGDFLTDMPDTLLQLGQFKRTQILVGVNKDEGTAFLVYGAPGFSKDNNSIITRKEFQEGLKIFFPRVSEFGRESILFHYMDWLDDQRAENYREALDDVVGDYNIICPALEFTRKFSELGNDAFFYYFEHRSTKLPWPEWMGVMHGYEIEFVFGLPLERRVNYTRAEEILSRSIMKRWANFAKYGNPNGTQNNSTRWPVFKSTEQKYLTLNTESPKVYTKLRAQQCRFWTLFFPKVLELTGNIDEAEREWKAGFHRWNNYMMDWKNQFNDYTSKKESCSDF
Protocol: (§1) In the extent that the toxic activity of TCP especially involves its action on cholinesterases, the effect of the compounds used according to the invention, as well as comparative compounds, on two cholinesterases was studied. The required concentration values of each compound to inhibit 50% of the activity of two cholinesterases were measured.
(§2) The acetylthiocholine and butyrylthiocholine iodide, and 5,5-dithiobis (2-nitrobenzoic) acid (DTNB) were purchased from Sigma Aldrich (Steinheim, Germany).
(§3) In the procedure, 100 μL of 0.3 mM DTNB dissolved in phosphate buffer, pH 7.4, were added in 96-well plates, followed by 50 μL solution of the test compound and 50 μL enzyme (final 0.05 U). After 5 minutes of pre-incubation at 25° C., the reaction was initiated by injecting 50 μL of 0.1 mM acetyl or butyryl thiocholine iodide solution. The acetyl or butyryl thiocholine hydrolysis was followed by the formation of yellow 5-thio 2-nitrobenzoate anion as the product of the reaction of DTNB with the thiocholine released by the enzymatic hydrolysis of the acetyl or butyryl thiocholine, at a wavelength of 412 nm, using a microplate reader (Synergy 2, Biotek, Colmar, France). The compounds to be tested were dissolved to 5×10^−3M in analytical grade DMSO. Donepezil or tacrine were used as reference standards. The absorption increase rate at 412 nm was determined 4 minutes after the addition of the acetyl or butyryl thiocholine iodide solution. The tests were carried out with a blank containing all the compounds except the acetyl or butyryl thiocholine in order to take into account non-enzymatic reactions.
(§4) The percentage of inhibition due to the presence of the test compounds was calculated using the following expression: […]
(§5) wherein vi is the rate calculated in the presence of the inhibitor, and v0 is the enzymatic activity.
(§6) All the experiments were carried out in n=3.

[2] = molecular target: T2, human erythrocyte AChE (hAChE) (Homo sapiens, UniProt P22303); test: biochemical; type: biochemical
T2 construct: The human erythrocyte AChE (hAChE, aqueous buffer solution); purchased Sigma Aldrich; host or cells: human erythrocytes (natural source)
T2 sequence (P22303 32-617 isoform P22303-2 limits assumed): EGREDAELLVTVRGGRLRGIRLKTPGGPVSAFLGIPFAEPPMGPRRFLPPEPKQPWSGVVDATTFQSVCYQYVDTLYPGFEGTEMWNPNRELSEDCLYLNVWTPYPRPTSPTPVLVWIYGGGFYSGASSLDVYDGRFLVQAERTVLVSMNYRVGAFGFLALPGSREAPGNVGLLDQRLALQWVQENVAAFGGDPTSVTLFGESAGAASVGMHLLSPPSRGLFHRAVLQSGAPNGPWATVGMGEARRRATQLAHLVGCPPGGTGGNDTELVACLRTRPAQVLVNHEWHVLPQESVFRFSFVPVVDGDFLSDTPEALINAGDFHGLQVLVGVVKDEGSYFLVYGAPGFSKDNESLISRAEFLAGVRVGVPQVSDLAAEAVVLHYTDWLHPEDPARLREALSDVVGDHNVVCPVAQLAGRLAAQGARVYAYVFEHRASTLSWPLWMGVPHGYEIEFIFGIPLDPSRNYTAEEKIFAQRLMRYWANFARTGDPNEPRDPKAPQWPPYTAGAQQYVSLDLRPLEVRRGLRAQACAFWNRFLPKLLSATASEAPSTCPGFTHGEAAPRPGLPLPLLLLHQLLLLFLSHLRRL
Protocol: as §1, §2, §3, §4, §5, §6

[3] = sum of five 0/1 risk factors, 0 (lack of risk) to 5 (very high multiple risk)
Excerpt: The last column corresponds to a risk level score for the safety of these molecules for use in oils such as turbine oils and their alleged cabin toxicity. […] A 0 value indicates a lack of risk, and a 5 value indicates a very high multiple risk. For each risk, a factor 0 or 1 is assigned based on whether the value is above or below a threshold.

[4] = European Chemicals Agency website; cited from earlier work
[5] = equine serum BuChE, Ellman method, 5 min pre-incubation at 25° C., n=3

Work on CC(C)CCCCCCCOP(=O)(Oc1ccccc1)Oc1ccccc1 [Compound 1, isodecyl diphenylphosphate] yielded an IC50 [1] of 93 µM, an IC50 [2] of 38.4 µM and a Risk level [3] of 0.

In the case of CCCCC(CC)COP(=O)(Oc1ccccc1)Oc1ccccc1 (stereo not shown) [Compound A, 2-ethylhexyl diphenylphosphate], the Risk level [3] is given as 4 and the “ECHA's official data” value [4] is given as “No CMR, no acute toxicity”.

For Cc1ccccc1OP(=O)(Oc1ccccc1C)Oc1ccccc1C [Compound B, Tri(ortho-cresyl)phosphate], the Risk level [3] was 5.

For Cc1cccc(OP(=O)(Oc2cccc(C)c2)Oc2cccc(C)c2)c1 [Compound C, Tri(meta-cresyl)phosphate], the Risk level [3] was 5.

With Cc1ccc(OP(=O)(Oc2ccc(C)cc2)Oc2ccc(C)cc2)cc1 [Compound D, Tri(para-cresyl)phosphate] the Risk level [3] was 3.

O=P(Oc1c(F)cccc1F)(Oc1c(F)cccc1F)Oc1c(F)cccc1F [Compound F, Tri(2,6-difluorophenyl)phosphate] showed a Risk level [3] of no less than 3.

With CC(C)(C)c1ccc(OP(=O)(Oc2ccccc2)Oc2ccc(C(C)(C)C)cc2)cc1 [Compound H, di(p-tertbutylphenyl)phenylphosphate] the Risk level [3] was 3.

O=P(Oc1ccccc1)(Oc1ccccc1)Oc1ccccc1 [Compound I1, tri phenyl phosphate] gave an IC50 [1] of 42.9 µM, an IC50 [2] of 33.1 µM and a Risk level [3] of 4. The “ECHA's official data” value [4] was “No CMR, no acute toxicity”.

For CC(C)(C)c1ccc(OP(=O)(Oc2ccc(C(C)(C)C)cc2)Oc2ccc(C(C)(C)C)cc2)cc1 [Compound I2, Tri(p-tert-butylphenyl)phosphate], the Risk level [3] was 3.

NP(=O)(Oc1ccccc1)Oc1ccccc1 [Compound K, Diphenyl phosphoroamidate] gave a Risk level [3] of 4.

In the case of CC(C)COP(=O)(OCC(C)C)OCC(C)C [Compound L, Tri(isobutyl)phosphate], the Risk level [3] is listed as 4 and the “ECHA's official data” value [4] is listed as “No CMR, no acute toxicity”.

For CCCCC(CC)COP(=O)(OCC(CC)CCCC)OCC(CC)CCCC (stereo not shown) [Compound M, Tris(2-ethylhexyl)phosphate], the IC50 ([1]; equine serum BuChE, Ellman method, 5 min pre-incubation at 25° C., n=3, read-out: IC50 eqBuChE (converted)) was 279 µM, the IC50 ([2]; human erythrocyte AChE, Ellman method, 5 min pre-incubation at 25° C., n=3, read-out: IC50 hAChE (converted)) was 28.1 µM and the Risk level [3] was no less than 2. The “ECHA's official data” value [4] was “No CMR, no acute toxicity”.

Molecule CCCCOC(=O)CC(SP(=S)(OCC(CC)CCCC)OCC(CC)CCCC)C(=O)OCCCC (stereo not shown) [Compound N, Dibutyl [[bis[(2-ethylhexyl)oxy]phosphinothioyl]thio]succinate] has an IC50 [1] of 19 µM, an IC50 [2] of 33.1 µM and a Risk level [3] of no less than 1. For the same molecule, the “ECHA's official data” value [4] was “No CMR, no acute toxicity”.

For Saligenin cresyl phosphate [Compound J], the “IC50 eqBuChE” value [1, 5] was 0.7 µg/mL and the Risk level [3] was 4.

Work on “Tri(4-isopropylbenzoate)phosphate [Compound G]” yielded a Risk level [3] of 2.

In the case of Tricresyl phosphate [Compound P], the “IC50 eqBuChE” value [1, 5] is reported as 0.7 µg/mL, the “IC50 hAChE” value ([2]; human erythrocyte AChE, Ellman method, 5 min pre-incubation at 25° C., n=3) is reported as 16.9 µg/mL and the Risk level [3] is reported as 4. For the same molecule, the “ECHA's official data” value [4] was “PBT* Reprotoxic”.

For Trixylyl phosphate [Compound E], the Risk level [3] is listed as no less than 2 and the “ECHA's official data” value [4] is listed as “PBT* Reprotoxic”.

Molecule “isododecyl diphenylphosphate [Compound 4]” has a Risk level [3] of 0.

Molecule isononyl diphenylphosphate [Compound Q] has a Risk level [3] of 4.
